The target in one test is T1, ROS1-wt (Homo sapiens, UniProt P08922).
T1 construct: purchased Carna 08-163
Description: Biochemical kinase assay, ROS1-wt kinase domain. Particulars: apparent inhibitory constant, Morrison equation; ATP 2 mM in substrate solution; read-out: ROS1-wt Ki^app. In a few lines: (§1)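 Kinetic read: 485 nm, 2-min intervals, 120 min, 30 °C. Substrate mix — ATP 2 mM, AQT0101 26 μM, HEPES 50 mM pH 7.5, MgCl2 10 mM. Output: Ki^app, Morrison equation.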

Test [1] deals with T2, Ba/F3 cells CD74-ROS1 wild-type (wt) (Homo sapiens, UniProt P08922).
T2 construct: fusion of the C-terminus of ROS1 with the N-terminus of various partner proteins; host or cells: Ba/F3 (RIKEN), retroviral pMSCV-puro; the other entry of the earlier key: CD74 (P04233, HLA class II histocompatibility antigen gamma chain)
Nature of the test: Ba/F3 cell proliferation assay, CD74-ROS1 wild-type. Particulars: 72 hours, CellTiter-Glo. The format is cell-based. In outline: (§2)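 IL-3-independent Ba/F3 CD74-ROS1 lines, puromycin-selected monoclones; 1,000 cells/well, plated 1 d before dosing; 3-fold serial dilutions, 72 h; CellTiter-Glo luminescence; IC50 by 4-parameter logistic regression.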

Another test has as its target T3, TRKA-wt (Homo sapiens, UniProt P04629).
T3 construct: or TRKA-wt (1 nM, BPS Bio, 40280) kinase domains in buffer; purchased BPS Bio 40280
Description: Biochemical kinase assay, TRKA-wt kinase domain. Particulars: apparent inhibitory constant, Morrison equation; ATP 2 mM in substrate solution; read-out: TRKA-wt Ki^app. In a few lines:
(§3)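 Compound in DMSO added first, then substrate solution (ATP 2 mM; AQT0101 or AQT0104, 26 μM; pH 7.5 HEPES, 10 mM MgCl2), then kinase solution with enzyme at 0.5–3 nM depending on construct. Kinetic read every 2 min for 120 min at 30° C; Ki^app by Morrison regression.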

A further test deals with T4, ALK L1196M/G1202R (Homo sapiens, UniProt Q9UM73, G1202R/L1196M).
T4 construct: purchased SignalChem A19-12NG
Nature of the test: Biochemical kinase assay, ALK L1196M/G1202R kinase domain. The following applies: apparent inhibitory constant, Morrison equation; ATP 2 mM in substrate solution; read-out: ALK-L1196M-G1202R Ki^app. In outline:
as §3

For the next test, the target named is T5, ROS1-G2032R (Homo sapiens, UniProt P08922, G2032R).
T5 construct: purchased SignalChem R14-12BG
Description: Biochemical kinase assay, ROS1-G2032R kinase domain. Particulars: apparent inhibitory constant, Morrison equation; ATP 2 mM in substrate solution; read-out: ROS1-G2032R Ki^app. In a few lines:
as §1

The target in test [2] is T6, Ba/F3 cells EML4-ALK L1196M/G1202R (variant 1) (Homo sapiens, UniProt Q9UM73, G1202R/L1196M).
T6 construct: echinoderm microtubule-associated protein-like 4 (EML4) gene and the ALK tyrosine kinase domain; host or cells: Ba/F3 (RIKEN), retroviral pMSCV-puro; the other entry of the earlier key: EML4 (Q9HC35, Echinoderm microtubule-associated protein-like 4)
Description: Ba/F3 cell proliferation assay, EML4-ALK L1196M/G1202R (variant 1). The format is cell-based. The following applies: 72 hours, CellTiter-Glo. In a few lines:
(§4)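 Stable fusion-expressing Ba/F3 clones, 1,000 cells/well. Compounds for 72 h, CellTiter-Glo readout; IC50 by 4-parameter logistic regression.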
(Cellular ATP, detected with luciferase, serves as a proxy for viable cell number.)

For test [3], the target named is T7, Ba/F3 cells CD74-ROS1 G2032R (Homo sapiens, UniProt P08922, G2032R).
T7 construct: fusion of the C-terminus of ROS1 with the N-terminus of various partner proteins; host or cells: Ba/F3 (RIKEN), retroviral pMSCV-puro; the other entry of the earlier key: CD74 (P04233, HLA class II histocompatibility antigen gamma chain)
Description: Ba/F3 cell proliferation assay, CD74-ROS1 G2032R. The format is cell-based. The following applies: 72 hours, CellTiter-Glo. In a few lines:
as §2

In the next test the target is T8, Ba/F3 cells TPM3-TRKA (Homo sapiens, UniProt P04629).
T8 construct: host or cells: Ba/F3 (RIKEN), retroviral pMSCV-puro; the other entry of the earlier key: TPM3 (P06753, Tropomyosin alpha-3 chain)
Nature of the test: Ba/F3 cell proliferation assay, TPM3-TRKA. Format: cell-based. The following applies: 72 hours, CellTiter-Glo, read-out: TPM3-NTRK1-wt IC50. In outline:
as §4

A further test addresses T9, ALK-wt (Homo sapiens, UniProt Q9UM73).
T9 construct: purchased Carna 08-518
Nature of the test: Biochemical kinase assay, ALK-wt kinase domain. The following applies: apparent inhibitory constant, Morrison equation; ATP 2 mM in substrate solution; read-out: ALK-wt Ki^app. In outline: as §3

For test [4], the system named is TPM3-NTRK1-wt IC50 / primary target IC50 (e.g. CD74-ROS1-wt). Description: TRKA selectivity in Ba/F3 cells (TRKA potency divided by primary target potency). The format is cell-based. Particulars: for TPM3-NTRK1-wt/CD74-ROS1-G2032R selectivity ratio: TRKA potency / CD74-ROS1-G2032R potency; for TPM3-NTRK1-wt/CD74-ROS1-wt selectivity ratio: TRKA potency / CD74-ROS1-wt potency; for TPM3-NTRK1-wt/EML4-ALK-L1196M-G1202R selectivity ratio: TRKA potency / EML4-ALK-L1196M-G1202R potency; for TPM3-NTRK1-wt/EML4-ALK-wt selectivity ratio: TRKA potency / EML4-ALK-wt potency. The method, then: TRKA selectivity was calculated by dividing a compound's TRKA potency by its primary target potency (e.g. TPM3-NTRK1-wt IC50/CD74-ROS1-wt IC50). Compound selectivity can be interpreted by binning ratio values: bin A for very high selectivity, ratio >30-fold; bin B for high selectivity, ratio >10-fold; bin C for moderate selectivity, ratio ≥1; and bin D for low selectivity, ratio <1. […] (nd=not determined).

Test [5] has as its target T10, Ba/F3 cells EML4-ALK wt (variant 1) (Homo sapiens, UniProt Q9UM73).
T10 construct: echinoderm microtubule-associated protein-like 4 (EML4) gene and the ALK tyrosine kinase domain; host or cells: Ba/F3 (RIKEN), retroviral pMSCV-puro; the other entry of the earlier key: EML4 (Q9HC35, Echinoderm microtubule-associated protein-like 4)
Description: Ba/F3 cell proliferation assay, EML4-ALK wt (variant 1). The format is cell-based. Particulars: 72 hours, CellTiter-Glo. In outline: as §4

A value given as a limit tells only on which side of the number the result lay.

The values below come from patent US12054498B2, “Heteroaromatic macrocyclic ether chemotherapeutic agents” (Nuvalent, Inc., priority 2020, dated 2024).

T6 sequence (Q9UM73 with tags, fused parts or gaps L1196M/G1202R): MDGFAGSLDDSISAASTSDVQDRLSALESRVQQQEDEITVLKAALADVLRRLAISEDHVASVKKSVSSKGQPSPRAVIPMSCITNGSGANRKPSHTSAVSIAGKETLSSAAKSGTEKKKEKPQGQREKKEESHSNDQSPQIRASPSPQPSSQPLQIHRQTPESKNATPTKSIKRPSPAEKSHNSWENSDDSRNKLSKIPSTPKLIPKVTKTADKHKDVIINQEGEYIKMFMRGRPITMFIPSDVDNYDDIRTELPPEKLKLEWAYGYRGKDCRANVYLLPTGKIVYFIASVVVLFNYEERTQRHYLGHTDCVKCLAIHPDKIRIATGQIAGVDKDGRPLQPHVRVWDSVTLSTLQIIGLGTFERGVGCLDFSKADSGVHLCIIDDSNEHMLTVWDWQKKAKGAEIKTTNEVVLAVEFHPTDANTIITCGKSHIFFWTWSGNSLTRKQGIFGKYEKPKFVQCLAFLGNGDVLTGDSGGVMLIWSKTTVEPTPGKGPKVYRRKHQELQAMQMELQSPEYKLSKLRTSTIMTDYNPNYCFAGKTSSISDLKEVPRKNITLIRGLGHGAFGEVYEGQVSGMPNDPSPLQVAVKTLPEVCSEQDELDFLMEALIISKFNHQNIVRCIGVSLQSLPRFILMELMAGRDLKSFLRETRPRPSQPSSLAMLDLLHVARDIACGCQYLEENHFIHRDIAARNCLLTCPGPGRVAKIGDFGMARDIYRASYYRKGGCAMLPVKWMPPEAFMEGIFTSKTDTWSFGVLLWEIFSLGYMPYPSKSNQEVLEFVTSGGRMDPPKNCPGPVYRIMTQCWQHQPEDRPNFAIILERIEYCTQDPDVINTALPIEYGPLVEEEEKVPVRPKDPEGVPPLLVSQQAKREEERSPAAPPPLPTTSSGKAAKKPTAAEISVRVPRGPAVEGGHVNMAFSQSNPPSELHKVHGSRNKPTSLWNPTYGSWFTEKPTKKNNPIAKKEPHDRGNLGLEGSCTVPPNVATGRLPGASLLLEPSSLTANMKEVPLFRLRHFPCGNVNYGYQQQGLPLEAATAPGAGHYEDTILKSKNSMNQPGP
T1 sequence (P08922 1945-2222 limits assumed): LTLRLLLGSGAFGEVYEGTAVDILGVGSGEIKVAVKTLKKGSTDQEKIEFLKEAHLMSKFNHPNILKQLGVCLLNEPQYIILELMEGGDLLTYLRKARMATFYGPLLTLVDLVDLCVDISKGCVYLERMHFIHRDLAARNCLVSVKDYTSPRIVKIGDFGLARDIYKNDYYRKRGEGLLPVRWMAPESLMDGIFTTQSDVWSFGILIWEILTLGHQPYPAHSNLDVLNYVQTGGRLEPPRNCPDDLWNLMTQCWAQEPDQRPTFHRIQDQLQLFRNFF
T5 sequence (P08922 1945-2222 G2032R limits assumed): as the sequence (P08922 1945-2222 limits assumed) above, with G88R counted along it
T2 sequence (P08922 1883-2347 limits assumed): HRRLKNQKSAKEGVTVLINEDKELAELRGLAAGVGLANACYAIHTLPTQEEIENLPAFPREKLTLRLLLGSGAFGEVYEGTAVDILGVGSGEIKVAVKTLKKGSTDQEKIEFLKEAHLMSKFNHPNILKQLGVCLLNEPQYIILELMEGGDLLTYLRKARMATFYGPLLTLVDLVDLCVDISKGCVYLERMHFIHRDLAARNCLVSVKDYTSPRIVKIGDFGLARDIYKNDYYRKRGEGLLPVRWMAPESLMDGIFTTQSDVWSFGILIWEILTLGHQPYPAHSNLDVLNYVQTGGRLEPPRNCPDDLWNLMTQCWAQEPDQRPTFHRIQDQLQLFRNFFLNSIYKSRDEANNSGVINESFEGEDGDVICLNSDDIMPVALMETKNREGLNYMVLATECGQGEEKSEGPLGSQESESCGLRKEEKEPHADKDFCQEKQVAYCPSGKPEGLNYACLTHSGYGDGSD
T7 sequence (P08922 1883-2347 G2032R limits assumed): as the sequence (P08922 1883-2347 limits assumed) above, with G150R counted along it
T8 sequence (P04629 510-796 limits assumed): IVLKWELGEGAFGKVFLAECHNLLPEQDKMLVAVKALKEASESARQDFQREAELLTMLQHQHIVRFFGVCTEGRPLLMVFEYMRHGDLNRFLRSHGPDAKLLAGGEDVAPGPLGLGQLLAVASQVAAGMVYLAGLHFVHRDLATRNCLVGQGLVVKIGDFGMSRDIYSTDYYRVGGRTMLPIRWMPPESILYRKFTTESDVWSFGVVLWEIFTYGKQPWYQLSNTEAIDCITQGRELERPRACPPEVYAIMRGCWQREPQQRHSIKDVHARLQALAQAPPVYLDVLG
T3 sequence (P04629 510-781 limits assumed): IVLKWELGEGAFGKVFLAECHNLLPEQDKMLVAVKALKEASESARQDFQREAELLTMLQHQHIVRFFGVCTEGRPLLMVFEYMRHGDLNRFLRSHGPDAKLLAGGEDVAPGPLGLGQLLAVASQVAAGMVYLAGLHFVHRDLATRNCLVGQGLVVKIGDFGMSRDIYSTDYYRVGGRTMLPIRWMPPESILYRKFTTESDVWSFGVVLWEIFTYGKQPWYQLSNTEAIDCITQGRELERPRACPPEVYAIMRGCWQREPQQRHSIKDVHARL
T9 sequence (Q9UM73 1116-1392 limits assumed): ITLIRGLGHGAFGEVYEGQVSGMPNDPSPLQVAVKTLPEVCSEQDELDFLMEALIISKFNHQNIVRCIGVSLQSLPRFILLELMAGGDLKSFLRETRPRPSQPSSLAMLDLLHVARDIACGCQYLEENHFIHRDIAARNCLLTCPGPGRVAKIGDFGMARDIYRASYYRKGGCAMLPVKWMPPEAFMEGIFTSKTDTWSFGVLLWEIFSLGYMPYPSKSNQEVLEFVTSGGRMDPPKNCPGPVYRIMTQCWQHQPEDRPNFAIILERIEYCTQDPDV
T10 sequence (Q9UM73 with tags, fused parts or gaps): as the sequence (Q9UM73 with tags, fused parts or gaps L1196M/G1202R) above, with M635L, R641G counted along it
T4 sequence (Q9UM73 1116-1392 L1196M/G1202R limits assumed): as the sequence (Q9UM73 1116-1392 limits assumed) above, with L81M, G87R counted along it

One may read the IC50 as the concentration that inhibits the measured activity by half. For the compound `CCn1ncc2c1-c1cnc(N)c(c1)O[C@H](C)c1cc(F)ccc1-c1nc(C)nn1C2` [Example 33, (19R)-3-ethyl-16-fluoro-10,19-dimethyl-20-oxa-hexaazapentacyclo[19.3.1.0^2,^6.0^8,^12.0^13,^18]pentacosa-1(24),2(6),4,9,11,13,15,17,21(25),22-decaen-22-amine], the Ki at ROS1-wt was below 50 nM; on TRKA-wt it was 50 to 500 nM; at ALK L1196M/G1202R, below 50 nM; on ROS1-G2032R it was below 50 nM; on ALK-wt, below 50 nM. Also, the concentration for half-maximal inhibition (IC50) in [1] lay in the range of 0.1 to 50 nM; in [2], 50 to 500 nM; in test [3], 0.1 to 50 nM; on Ba/F3 cells TPM3-TRKA it was 50 to 500 nM; in test [5] it was 0.1 to 50 nM. For the same compound, the TPM3-NTRK1-wt/CD74-ROS1-G2032R selectivity ratio entry in test [4] is reported as “A (bin A for very high selectivity, ratio >30-fold)”. Further, the TPM3-NTRK1-wt/CD74-ROS1-wt selectivity ratio result in test [4] was “A (bin A for very high selectivity, ratio >30-fold)”. For the same compound, in test [4], the TPM3-NTRK1-wt/EML4-ALK-L1196M-G1202R selectivity ratio entry was “C (bin C for moderate selectivity, ratio ≥1)”. Also, in [4], the TPM3-NTRK1-wt/EML4-ALK-wt selectivity ratio result is “A (bin A for very high selectivity, ratio >30-fold)”.

For the compound `CCn1ncc2c1-c1cnc(N)c(c1)OC(C)c1cc(F)ccc1-c1cccnc1C2` (stereo not shown) [Example 34, 3-ethyl-17-fluoro-20-methyl-21-oxa-3,4,9,24-tetraazapentacyclo[20.3.1.0^2,^6.0^8,^13.0^14,^19]hexacosa-1(25),2(6),4,8(13),9,11,14,16,18,22(26),23-undecaen-23-amine], the Ki on ROS1-wt is below 50 nM; at TRKA-wt it was 50 to 500 nM; at ALK L1196M/G1202R, below 50 nM; on ROS1-G2032R it was below 50 nM; on ALK-wt, below 50 nM. In addition, the concentration for half-maximal inhibition (IC50) in test [1] was in the range of 0.1 to 50 nM; in test [2], 0.1 to 50 nM; in test [3], 0.1 to 50 nM; on Ba/F3 cells TPM3-TRKA, 50 to 500 nM; in test [5], 0.1 to 50 nM. In [4], the TPM3-NTRK1-wt/CD74-ROS1-G2032R selectivity ratio entry is “A (bin A for very high selectivity, ratio >30-fold)”. The TPM3-NTRK1-wt/CD74-ROS1-wt selectivity ratio entry in test [4] is reported as “A (bin A for very high selectivity, ratio >30-fold)”. Further, the TPM3-NTRK1-wt/EML4-ALK-L1196M-G1202R selectivity ratio entry in test [4] is “B (bin B for high selectivity, ratio >10-fold)”. For the same compound, the TPM3-NTRK1-wt/EML4-ALK-wt selectivity ratio entry in test [4] was “A (bin A for very high selectivity, ratio >30-fold)”.

Turning to `CCn1ncc2c1-c1cnc(N)c(c1)O[C@H](C)c1cc(F)ccc1-c1ncnn1C2` [Example 35, (19R)-3-ethyl-16-fluoro-19-methyl-20-oxa-3,4,8,9,11,23-hexaazapentacyclo[19.3.1.0^2,^6.0^8,^12.0^13,^18]pentacosa-1(24),2(6),4,9,11,13,15,17,21(2 5),22-decaen-22-amine], the Ki on ROS1-wt was below 50 nM; on TRKA-wt, 50 to 500 nM; at ALK L1196M/G1202R, below 50 nM; at ROS1-G2032R it was below 50 nM; on ALK-wt, below 50 nM. For the same compound, the IC50 in test [1] is 0.1 to 50 nM; in test [2], 50 to 500 nM; in test [3] it was 0.1 to 50 nM; on Ba/F3 cells TPM3-TRKA it was above 500 nM; in test [5], 0.1 to 50 nM. Also, the TPM3-NTRK1-wt/CD74-ROS1-G2032R selectivity ratio result in test [4] was “A (bin A for very high selectivity, ratio >30-fold)”. Moreover, the TPM3-NTRK1-wt/CD74-ROS1-wt selectivity ratio result in test [4] is “A (bin A for very high selectivity, ratio >30-fold)”. Further, the TPM3-NTRK1-wt/EML4-ALK-L1196M-G1202R selectivity ratio result in test [4] is “C (bin C for moderate selectivity, ratio ≥1)”. For the same compound, the TPM3-NTRK1-wt/EML4-ALK-wt selectivity ratio entry in test [4] was “A (bin A for very high selectivity, ratio >30-fold)”.

On to `CCn1ncc2c1-c1cnc(N)c(c1)OC(C)c1cc(F)cnc1-c1ccnn1C2` (stereo not shown) [Example 37, 3-ethyl-16-fluoro-19-methyl-20-oxa-3,4,8,9,14,23-hexaazapentacyclo[19.3.1.0^2,^6.0^8,^12.0^13,^18]pentacosa-1(24),2(6),4,9,11,13,15,17,21(25),22-decaen-22-amine], for which the Ki on ROS1-wt was below 50 nM; on TRKA-wt, above 500 nM; at ALK L1196M/G1202R, 50 to 500 nM; on ROS1-G2032R, below 50 nM; on ALK-wt it was below 50 nM. Moreover, the IC50 was 0.1 to 50 nM in test [1]; 50 to 500 nM in test [2]; 0.1 to 50 nM in test [3]; above 500 nM at Ba/F3 cells TPM3-TRKA; 0.1 to 50 nM in test [5]. For the same compound, in test [4], the TPM3-NTRK1-wt/CD74-ROS1-G2032R selectivity ratio result is recorded as “A (bin A for very high selectivity, ratio >30-fold)”. The TPM3-NTRK1-wt/CD74-ROS1-wt selectivity ratio result in test [4] is listed as “A (bin A for very high selectivity, ratio >30-fold)”. Moreover, the TPM3-NTRK1-wt/EML4-ALK-L1196M-G1202R selectivity ratio entry in test [4] was “B (bin B for high selectivity, ratio >10-fold)”. Besides, the TPM3-NTRK1-wt/EML4-ALK-wt selectivity ratio entry in test [4] is on record as “A (bin A for very high selectivity, ratio >30-fold)”.

With `CCn1ncc2c1-c1cnc(N)c(c1)O[C@H](C)c1cc(F)ccc1-n1ncnc1C2` [Example 38, (19R)-3-ethyl-16-fluoro-19-methyl-20-oxa-3,4,9,11,12,23-hexaazapentacyclo[19.3.1.0^2,^6.0^8,^12.0^13,^18]pentacosa-1(24),2(6),4,8,10,13,15,17,21(25),22-decaen-22-amine], the Ki on ROS1-wt is below 50 nM; on TRKA-wt it was 50 to 500 nM; at ALK L1196M/G1202R, below 50 nM; at ROS1-G2032R, below 50 nM; at ALK-wt, below 50 nM. Moreover, the concentration for half-maximal inhibition (IC50) was 0.1 to 50 nM in test [1]; 50 to 500 nM in [2]; 0.1 to 50 nM in [3]; above 500 nM at Ba/F3 cells TPM3-TRKA; 0.1 to 50 nM in test [5]. Besides, the TPM3-NTRK1-wt/CD74-ROS1-G2032R selectivity ratio result in test [4] is reported as “A (bin A for very high selectivity, ratio >30-fold)”. The TPM3-NTRK1-wt/CD74-ROS1-wt selectivity ratio entry in [4] was “A (bin A for very high selectivity, ratio >30-fold)”. Moreover, in [4], the TPM3-NTRK1-wt/EML4-ALK-L1196M-G1202R selectivity ratio entry is recorded as “C (bin C for moderate selectivity, ratio ≥1)”. Further, the TPM3-NTRK1-wt/EML4-ALK-wt selectivity ratio result in [4] is listed as “A (bin A for very high selectivity, ratio >30-fold)”.
